Data from paper PMC4279137 (Pharmaceutics, 2014).
Read-outs that look alike come from different tables or passages of the source.

Experiments:
OATP1B1 [1] = molecular target: T1, OATP1B1 (Homo sapiens, UniProt Q9Y6L6); test: OATP inhibition assay (8-FcA flow cytometry uptake assay) in HEK-OATP1B1 cells; assay type: cell-based; conditions: 8-fluorescein-cAMP uptake
T1 construct: expressed in transfected cells; host or cells: HEK293 (HEK-OATP1B1)
Method: (§1) For assessing human organic antion transporting polypeptides (OATPs = solute carriers of organic anions (SLCOs)) inhibition, the human embryonic kidney cell line HEK293 stably transfected with OATP1B1 (HEK-OATP1B1), OATP1B3 (HEK-OATP1B3), or the empty control vector (HEK293-VC G418) were used. Cells were cultured under standard cell culture conditions with DMEM supplemented with 10% FCS, 2 mM glutamine, 100 U/mL penicillin, 100 µg/mL streptomycin sulphate, and 800 µg/mL G418. Cells were kindly provided by Dr. D. Keppler (German Cancer Research Centre, Heidelberg, Germany).
(§2) Inhibition of OATP1B1 and OATP1B3 was analysed by flow cytometric uptake of the fluorescent 8-FcA as described previously using HEK-OATP1B1, OATP1B3, and HEK293-VC G418 (as a control). […] Subsequently, cells were washed once with 1 mL ice-cold incubation medium and resuspended in 500 µL incubation medium and kept on ice until flow cytometry. Intracellular fluorescence was analysed in a Becton Dickinson LSRII flow cytometer (Becton Dickinson, Heidelberg, Germany) with a solid state coherent sapphire blue laser and a 530 bandpass filter for 8-FcA.
(§3) In each sample 30,000 cells were counted. Cell debris was eliminated by gating the viable cells in the forward versus side scatter. […] Each experiment was performed at least in triplicate.

OATP1B3 [2] = molecular target: T2, OATP1B3 (Homo sapiens, UniProt Q9NPD5); test: OATP inhibition assay (8-FcA flow cytometry uptake assay) in HEK-OATP1B3 cells; assay type: cell-based; conditions: 8-fluorescein-cAMP uptake
T2 construct: expressed in transfected cells; host or cells: HEK293 (HEK-OATP1B3)
T2 sequence (Q9NPD5 whole entry): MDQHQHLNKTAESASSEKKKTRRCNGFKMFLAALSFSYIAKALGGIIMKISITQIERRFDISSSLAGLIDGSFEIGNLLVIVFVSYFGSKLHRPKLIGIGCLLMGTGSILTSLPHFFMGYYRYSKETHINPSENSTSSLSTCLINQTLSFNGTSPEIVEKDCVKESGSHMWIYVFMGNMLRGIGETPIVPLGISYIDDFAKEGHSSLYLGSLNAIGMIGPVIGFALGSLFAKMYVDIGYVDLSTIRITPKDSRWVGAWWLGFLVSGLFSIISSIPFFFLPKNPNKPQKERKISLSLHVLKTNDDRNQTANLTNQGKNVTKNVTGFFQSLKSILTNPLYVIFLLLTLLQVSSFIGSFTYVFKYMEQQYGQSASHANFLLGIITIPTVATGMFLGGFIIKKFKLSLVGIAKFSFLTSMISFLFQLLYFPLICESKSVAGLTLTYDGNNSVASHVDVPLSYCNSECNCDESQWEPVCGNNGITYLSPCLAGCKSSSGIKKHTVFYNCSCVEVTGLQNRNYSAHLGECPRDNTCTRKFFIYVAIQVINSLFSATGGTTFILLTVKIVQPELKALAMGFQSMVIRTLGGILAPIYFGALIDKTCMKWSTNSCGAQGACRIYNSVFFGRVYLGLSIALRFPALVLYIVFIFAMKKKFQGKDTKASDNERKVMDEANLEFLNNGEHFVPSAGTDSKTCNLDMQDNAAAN
Method: as §1, §2, §3

CYP2C19 [3] = molecular target: T3, CYP2C19 (Homo sapiens, UniProt P33261); test: CYP2C19/CEC High Throughput Inhibitor Screening Kit; assay type: biochemical
T3 construct: purchased Becton Dickinson Biosciences, Heidelberg, Germany
T3 sequence (P33261 whole entry): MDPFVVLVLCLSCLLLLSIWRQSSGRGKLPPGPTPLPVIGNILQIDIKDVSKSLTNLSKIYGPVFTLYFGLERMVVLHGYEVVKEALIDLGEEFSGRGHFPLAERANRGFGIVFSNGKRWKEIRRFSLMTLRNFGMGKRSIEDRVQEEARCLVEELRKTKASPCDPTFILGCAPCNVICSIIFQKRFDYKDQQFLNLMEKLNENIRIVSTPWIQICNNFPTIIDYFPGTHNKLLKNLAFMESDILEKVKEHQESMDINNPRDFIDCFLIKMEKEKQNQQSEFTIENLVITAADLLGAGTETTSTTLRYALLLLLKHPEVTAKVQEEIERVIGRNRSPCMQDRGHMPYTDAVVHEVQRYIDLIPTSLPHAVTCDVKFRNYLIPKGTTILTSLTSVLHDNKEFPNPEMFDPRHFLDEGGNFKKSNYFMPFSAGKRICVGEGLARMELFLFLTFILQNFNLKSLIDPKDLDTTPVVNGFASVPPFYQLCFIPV
Method: (§4) Inhibition studies were performed with the CYP2D6/AMMC, the CYP2C19/CEC, and the CYP3A4/BFC High Throughput Inhibitor Screening Kit (Becton Dickinson Biosciences, Heidelberg, Germany) according to the manufacturer’s instructions. The Screening Kits contain the respective recombinant CYP and fluorogenic substrates, which are blocked dyes yielding minimal fluorescence signal until cleaved by the enzyme. […] Eight concentrations (9 nM–20 µM) were tested and the experiment was conducted in triplicate.

CYP3A4 [4] = molecular target: CYP3A4 (Homo sapiens, UniProt P08684); test: in vitro
CYP3A4 (Homo sapiens, UniProt P08684), sequence (P08684 whole entry): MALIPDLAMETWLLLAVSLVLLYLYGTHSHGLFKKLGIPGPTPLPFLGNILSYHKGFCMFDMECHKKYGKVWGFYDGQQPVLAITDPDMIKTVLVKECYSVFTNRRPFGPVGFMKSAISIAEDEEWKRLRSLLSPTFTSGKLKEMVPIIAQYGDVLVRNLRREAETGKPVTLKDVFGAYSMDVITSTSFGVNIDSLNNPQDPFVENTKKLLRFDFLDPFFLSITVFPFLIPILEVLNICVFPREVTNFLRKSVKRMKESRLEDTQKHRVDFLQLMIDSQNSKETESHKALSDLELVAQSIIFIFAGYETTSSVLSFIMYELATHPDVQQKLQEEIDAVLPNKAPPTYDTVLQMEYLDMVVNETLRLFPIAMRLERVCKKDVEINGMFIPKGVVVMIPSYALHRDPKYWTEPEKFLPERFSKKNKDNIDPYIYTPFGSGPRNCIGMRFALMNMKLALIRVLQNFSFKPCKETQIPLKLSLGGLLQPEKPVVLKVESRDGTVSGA
Method: as §4

CYP2D6 = molecular target: T4, CYP2D6 (Homo sapiens, UniProt P10635); test: CYP2D6/AMMC High Throughput Inhibitor Screening Kit; assay type: biochemical; conditions: tested up to 20 µM
T4 construct: purchased Becton Dickinson Biosciences, Heidelberg, Germany
T4 sequence (P10635 whole entry): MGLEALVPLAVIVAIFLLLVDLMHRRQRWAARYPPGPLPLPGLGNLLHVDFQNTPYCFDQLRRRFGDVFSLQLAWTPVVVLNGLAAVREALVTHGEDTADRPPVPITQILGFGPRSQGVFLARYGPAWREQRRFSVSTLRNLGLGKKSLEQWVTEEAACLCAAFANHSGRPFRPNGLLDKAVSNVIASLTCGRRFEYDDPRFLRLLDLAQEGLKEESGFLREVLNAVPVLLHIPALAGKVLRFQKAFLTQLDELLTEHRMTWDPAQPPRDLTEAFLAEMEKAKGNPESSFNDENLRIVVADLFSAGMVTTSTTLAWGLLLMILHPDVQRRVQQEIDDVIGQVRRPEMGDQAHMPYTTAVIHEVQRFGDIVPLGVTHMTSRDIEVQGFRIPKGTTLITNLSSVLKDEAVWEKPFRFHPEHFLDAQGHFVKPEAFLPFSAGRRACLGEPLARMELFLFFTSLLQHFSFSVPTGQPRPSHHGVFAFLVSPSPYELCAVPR
Method: as §4

LS180 cells = test: Growth inhibition assay (crystal violet staining) in LS180 cells; assay type: cell-based; conditions: Homo sapiens, 48 h, read-out: IC20 for proliferation inhibition
Method: The human colon adenocarcinoma cell line LS180 (available at ATCC, Manassas, VA, USA) was used for induction experiments as a surrogate for the intestine being a major site of drug interactions and being an ideal model for investigating pregnane X receptor (PXR) and aryl hydrocarbon receptor (AhR) mediated induction. Cells were cultured under standard cell culture conditions with Dulbecco’s Modified Eagle’s Medium (DMEM) supplemented with 10% fetal calf serum, 2 mM glutamine, 100 U/mL penicillin, 100 µg/mL streptomycin sulphate, and 0.1 mM nonessential amino acids.
Growth inhibition assays in LS180 cells were conducted to determine suitable maximum concentrations for the induction assay without profound antiproliferative effects. Proliferation was quantified by crystal violet staining as described previously. […] Absorption was measured at 555 nm excitation. Proliferation was expressed as proliferation index, which was calculated as the absorption intensity of the test well in percentage points relative to zero proliferation (absorption of wells containing only medium set to 0%) and native proliferation (absorption intensity of untreated control cells set to 100%). […] Concentration-response curves and IC20 values were calculated by GraphPad Prism version 5.02 (GraphPad Software Inc., La Jolla, CA, USA) according to a sigmoid Emax model.

MDCKII = test: Growth inhibition assay in MDCKII cells; assay type: cell-based, canine; conditions: Canis lupus familiaris, MDCK-II; MDCKII parental cells
[5] = Growth inhibition assay in MDCKII-BCRP cells; assay type: cell-based, canine; conditions: dog
[6] = Growth inhibition assay in MDCKII-MDR1 cells; assay type: cell-based, canine; conditions: dog
AhR = molecular target: T5, AhR (Homo sapiens, UniProt P35869); test: AhR reporter gene assay in AZ-AhR cells; assay type: cell-based; conditions: 24 h, luciferase reporter, read-out: EC50 activation of AhR activity
T5 construct: endogenous in cells; host or cells: AZ-AhR (HepG2)
T5 sequence (P35869 11-848): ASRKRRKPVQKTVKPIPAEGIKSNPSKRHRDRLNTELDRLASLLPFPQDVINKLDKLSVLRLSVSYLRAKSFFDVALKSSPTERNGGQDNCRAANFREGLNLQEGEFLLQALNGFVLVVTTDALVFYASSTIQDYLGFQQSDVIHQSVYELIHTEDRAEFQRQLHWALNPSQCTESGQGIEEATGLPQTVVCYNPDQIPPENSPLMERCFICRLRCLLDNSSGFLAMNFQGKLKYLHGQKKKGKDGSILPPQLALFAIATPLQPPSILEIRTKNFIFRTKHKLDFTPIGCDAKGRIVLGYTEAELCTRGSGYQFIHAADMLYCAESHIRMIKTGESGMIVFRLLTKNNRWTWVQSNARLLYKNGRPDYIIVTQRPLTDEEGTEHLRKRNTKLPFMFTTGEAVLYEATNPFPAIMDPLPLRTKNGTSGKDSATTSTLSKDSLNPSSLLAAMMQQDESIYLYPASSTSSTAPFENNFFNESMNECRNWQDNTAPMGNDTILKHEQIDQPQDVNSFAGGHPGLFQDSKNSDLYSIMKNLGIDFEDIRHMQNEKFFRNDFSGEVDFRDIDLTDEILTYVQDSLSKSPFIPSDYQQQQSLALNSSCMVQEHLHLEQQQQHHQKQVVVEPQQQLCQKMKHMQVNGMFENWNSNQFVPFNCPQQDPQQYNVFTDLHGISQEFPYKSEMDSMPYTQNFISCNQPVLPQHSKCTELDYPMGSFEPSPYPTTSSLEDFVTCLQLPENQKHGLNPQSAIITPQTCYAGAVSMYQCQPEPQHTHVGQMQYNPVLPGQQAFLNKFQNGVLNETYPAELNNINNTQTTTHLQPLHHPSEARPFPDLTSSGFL
Method: Human hepatoma HepG2 cells stably transfected with a construct containing several AhR binding sites upstream of a luciferase reporter gene were used for the AhR reporter gene assays as described previously.
In total, 60,000 AZ-AhR cells were seeded into each well of 96-well plates with clear bottom and clear lid for luminometry. […] The assay was performed with the Steady-Glo™ Luciferase Assay System according to the manufacturer’s instructions. Drug-induced increases of AhR receptor activity were normalised to activity of non-drug treated controls set to 1 (=100%).

CYP1A1 = test: Induction assay, mRNA by real-time RT-PCR in LS180 cells: CYP1A1; assay type: cell-based, human
Method: (§5) The human colon adenocarcinoma cell line LS180 (available at ATCC, Manassas, VA, USA) was used for induction experiments as a surrogate for the intestine being a major site of drug interactions and being an ideal model for investigating PXR and AhR mediated induction. Cells were cultured as described previously. For the induction experiments, LS180 cells were seeded in 75 cm^2 culturing flasks and incubated for three days. […] Rifampicin (20 µM) served as a positive control and culture medium with 0.02% DMSO as a negative control. For induction of CYP1A1 and CYP1A2, 5 nM TCDD was used as a positive control. All incubation solutions were adjusted to 0.02% DMSO. […]
(§6) RNA was isolated using the RNeasy Mini-Kit and cDNA was synthesised with the RevertAid™ H Minus First Strand cDNA Synthesis Kit according to the manufacturer’s instructions. mRNA expression was quantified by real-time RT-PCR with the LightCycler® 480 (Roche Applied Science, Mannheim, Germany) as described previously. […] Data were evaluated by calibrator-normalised relative quantification with efficiency correction using the LightCycler® 480 software version 1.5 (Roche Applied Science, Mannheim, Germany). The software calculated the relative amount of the target gene and the reference gene (G6PDH) based on the crossing points. Results were expressed as the target/reference ratio divided by the target/reference ratio of the calibrator. […]

CYP1A2 = test: Induction assay, mRNA by real-time RT-PCR in LS180 cells: CYP1A2; assay type: cell-based, human
Method: as §5, §6

ABCC3 = test: Induction assay, mRNA by real-time RT-PCR in LS180 cells: ABCC3; assay type: cell-based, human; conditions: 0.1-5 µM, four days
Method: as §5, §6

ABCG2 = test: Induction assay, mRNA by real-time RT-PCR in LS180 cells: ABCG2; assay type: cell-based, human; conditions: 0.1-5 µM, four days
Method: as §5, §6

ABCB1 = test: Induction assay, mRNA by real-time RT-PCR in LS180 cells: ABCB1; assay type: cell-based, human; conditions: four days, at higher concentrations
Method: as §5, §6

ABCC2 = test: Induction assay, mRNA by real-time RT-PCR in LS180 cells: ABCC2; assay type: cell-based, human; conditions: four days, at higher concentrations
Method: as §5, §6

SLCO1B1 = test: Induction assay, mRNA by real-time RT-PCR in LS180 cells: SLCO1B1; assay type: cell-based, human; conditions: four days, at higher concentrations
Method: as §5, §6

SLCO2B1 = test: Induction assay, mRNA by real-time RT-PCR in LS180 cells: SLCO2B1; assay type: cell-based, human; conditions: four days, at higher concentrations
Method: as §5, §6

UGT1A3 = test: Induction assay, mRNA by real-time RT-PCR in LS180 cells: UGT1A3; assay type: cell-based, human; conditions: four days, at higher concentrations
Method: as §5, §6

UGT2B7 = test: Induction assay, mRNA by real-time RT-PCR in LS180 cells: UGT2B7; assay type: cell-based, human; conditions: four days, at higher concentrations
Method: as §5, §6

NR1I2 = test: Induction assay, mRNA by real-time RT-PCR in LS180 cells: NR1I2; assay type: cell-based, human; conditions: four days, at higher concentrations
Method: as §5, §6

CYP2C19 [7] = test: Induction assay, mRNA by real-time RT-PCR in LS180 cells: CYP2C19; assay type: cell-based, human; conditions: 0.1-5 µM, four days
Method: as §5, §6

CYP3A4 [8] = test: Induction assay, mRNA by real-time RT-PCR in LS180 cells: CYP3A4; assay type: cell-based, human; conditions: 0.1-5 µM, four days
Method: as §5, §6

ABCC1 = test: Induction assay, mRNA by real-time RT-PCR in LS180 cells: ABCC1; assay type: cell-based, human; conditions: 0.1-5 µM, four days
Method: as §5, §6

P-gp = test: Western blot analysis of P-gp expression in LS180 cells; assay type: cell-based, human; conditions: four days
Method: The human colon adenocarcinoma cell line LS180 (available at ATCC, Manassas, VA, USA) was used for induction experiments as a surrogate for the intestine being a major site of drug interactions and being an ideal model for investigating PXR and AhR mediated induction. Cells were cultured as described previously. For the induction experiments, LS180 cells were seeded in 75 cm^2 culturing flasks and incubated for three days. […] Rifampicin (20 µM) served as a positive control and culture medium with 0.02% DMSO as a negative control. For induction of CYP1A1 and CYP1A2, 5 nM TCDD was used as a positive control. All incubation solutions were adjusted to 0.02% DMSO. After harvesting, cells were splitted for RNA and protein extraction.

[9] = Stock solution in DMSO (highest possible solution); assay type: physicochemical
BCRP = molecular target: T6, BCRP (Homo sapiens, UniProt Q9UNQ0); set-up: method as in PMID 20222053; conditions: MDCKII-BCRP cells; read-out: IC50 BCRP inhibition, control compound; cited from earlier work
T6 construct: expressed in transfected cells; host or cells: MDCKII-BCRP (Madin-Darby canine kidney cells)
T6 sequence (Q9UNQ0 whole entry): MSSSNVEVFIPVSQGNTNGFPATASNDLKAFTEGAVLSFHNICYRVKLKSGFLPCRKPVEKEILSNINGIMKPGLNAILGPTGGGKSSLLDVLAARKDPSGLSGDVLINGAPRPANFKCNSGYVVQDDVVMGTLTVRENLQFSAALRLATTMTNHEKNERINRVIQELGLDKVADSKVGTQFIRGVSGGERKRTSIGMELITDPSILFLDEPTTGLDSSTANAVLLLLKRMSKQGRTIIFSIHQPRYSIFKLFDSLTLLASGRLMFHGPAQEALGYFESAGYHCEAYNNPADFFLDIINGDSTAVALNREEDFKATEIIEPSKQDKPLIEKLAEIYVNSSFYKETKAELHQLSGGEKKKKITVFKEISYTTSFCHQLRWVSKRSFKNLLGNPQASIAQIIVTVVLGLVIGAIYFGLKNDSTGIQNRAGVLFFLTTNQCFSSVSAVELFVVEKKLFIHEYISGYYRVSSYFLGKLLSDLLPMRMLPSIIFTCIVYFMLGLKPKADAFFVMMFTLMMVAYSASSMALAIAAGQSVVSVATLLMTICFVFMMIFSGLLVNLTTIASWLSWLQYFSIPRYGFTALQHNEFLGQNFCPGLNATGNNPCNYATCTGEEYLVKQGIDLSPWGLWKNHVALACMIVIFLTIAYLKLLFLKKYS

OATP1B1 [10] = molecular target: T1, OATP1B1; set-up: method as in PMID 23219525; conditions: HEK-OATP1B1 cells; read-out: IC50 OATP1B1 inhibition, control compound; cited from earlier work
OATP1B3 [11] = molecular target: T2, OATP1B3; set-up: method as in PMID 23219525; conditions: HEK-OATP1B3 cells; read-out: IC50 OATP1B3 inhibition, control compound; cited from earlier work

T1 sequence (Q9Y6L6 whole entry): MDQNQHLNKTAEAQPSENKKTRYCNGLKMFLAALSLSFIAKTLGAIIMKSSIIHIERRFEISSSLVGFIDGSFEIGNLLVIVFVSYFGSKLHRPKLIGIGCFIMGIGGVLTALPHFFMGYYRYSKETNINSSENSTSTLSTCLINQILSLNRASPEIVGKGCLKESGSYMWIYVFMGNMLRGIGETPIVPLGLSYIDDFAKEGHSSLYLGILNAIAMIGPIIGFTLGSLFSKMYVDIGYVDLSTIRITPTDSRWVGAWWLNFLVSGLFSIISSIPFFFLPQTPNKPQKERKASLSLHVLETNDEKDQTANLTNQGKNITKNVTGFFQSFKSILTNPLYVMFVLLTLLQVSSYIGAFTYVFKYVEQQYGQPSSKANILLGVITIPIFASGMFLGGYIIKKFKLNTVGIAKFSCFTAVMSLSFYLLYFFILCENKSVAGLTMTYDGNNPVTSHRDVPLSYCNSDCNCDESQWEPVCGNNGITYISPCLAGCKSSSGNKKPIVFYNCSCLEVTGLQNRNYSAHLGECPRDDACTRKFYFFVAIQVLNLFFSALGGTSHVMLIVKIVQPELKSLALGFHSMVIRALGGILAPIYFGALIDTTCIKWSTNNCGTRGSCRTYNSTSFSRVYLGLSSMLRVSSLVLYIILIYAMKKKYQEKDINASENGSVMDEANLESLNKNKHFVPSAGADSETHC

CN1CCN(c2ccc3nc(-c4c(N)c5c(F)cccc5[nH]c4=O)[nH]c3c2)CC1 [Dovitinib]
IC50 (OATP1B1 [1]): 76.5 ± 28.9 µM | IC50 (OATP1B3 [2]): > 100 µM | inhibition at 20 µM (CYP2C19 [3]; human, recombinant CYP2C19, probe CEC, at 20 µM): ~50% | inhibition at 20 µM (CYP3A4 [4]): ~30% | CYP2D6 inhibition (CYP2D6): not inhibited at all | IC20 (LS180 cells): 4.9 ± 2.5 µM | IC50 (MDCKII): 20 ± 2.9 µM | IC50 at 48 h [5]: 21.4 ± 3.6 µM | IC50 at 48 h [6]: 18.3 ± 4.1 µM | EC50 (AhR): 0.609 ± 0.282 µM | mRNA expression of CYP1A1 (CYP1A1; 0.1-5 µM, four days): induced | induction of CYP1A1 (mRNA) (CYP1A1; Figure 3): approximately 10 fold | mRNA expression of CYP1A2 (CYP1A2; 0.1-5 µM, four days): induced | induction of CYP1A2 (mRNA) (CYP1A2; Figure 3): approximately 10 fold | mRNA expression of ABCC3 (ABCC3): induced | mRNA expression of ABCG2 (ABCG2): induced | mRNA expression of ABCB1 (ABCB1): reduced | mRNA expression of ABCC2 (ABCC2): reduced | mRNA expression of SLCO1B1 (SLCO1B1): reduced | mRNA expression of SLCO2B1 (SLCO2B1): reduced | mRNA expression of UGT1A3 (UGT1A3): reduced | mRNA expression of UGT2B7 (UGT2B7): reduced | mRNA expression of NR1I2 (NR1I2): reduced | mRNA expression of CYP2C19 (CYP2C19 [7]): no influence | mRNA expression of CYP3A4 (CYP3A4 [8]): no influence | mRNA expression of ABCC1 (ABCC1): no influence | P-gp protein expression (western blot) (P-gp; at 0.1 and 0.5 µM): small increase in P-gp expression | P-gp protein expression (western blot) (P-gp; at higher dovitinib concentrations): suppression of P-gp protein expression | stock solution, highest possible solution [9]: 10 mM

COc1ccc2c3c([nH]c2c1)[C@H](C=C(C)C)N1C(=O)[C@@H]2CCCN2C(=O)[C@@H]1C3 [Fumitremorgin C]
IC50 (BCRP): 0.7 ± 0.3 µM

CO[C@H]1/C=C/O[C@@]2(C)Oc3c(C)c(O)c4c(O)c(c(/C=N/N5CCN(C)CC5)c(O)c4c3C2=O)NC(=O)/C(C)=C\C=C\[C@H](C)[C@H](O)[C@@H](C)[C@@H](O)[C@@H](C)[C@H](OC(C)=O)[C@@H]1C [Rifampicin]
IC50 (OATP1B1 [10]): 2.4 ± 0.9 µM | IC50 (OATP1B3 [11]): 2.1 ± 1 µM

COc1ccc2[nH]c([S+]([O-])Cc3ncc(C)c(OC)c3C)nc2c1 (stereo not drawn) [omeprazole, Omeprazole]
IC50 (CYP2C19 [3]; control compound, read-out: IC50 CYP2C19 inhibition): 0.8 ± 0.2 µM
